Legend:
[1] = target: Major prion protein (Homo sapiens) (UniProt P04156); assay: Binding affinity to human prion protein by surface plasmon resonance assay
[2] = target: Major prion protein (Mus musculus) (UniProt P04925); assay: Binding affinity to mouse prion protein by surface plasmon resonance assay
[3] = Inhibition of PrPSc formation in mouse SMB cells at 10 uM relative to control; assay type: functional
[4] = Toxicity against mouse SMB cells after 5 days by MTT assay; assay type: cell-based; settings: 120 h
[5] = Inhibition of PrPSc formation in mouse SMB cells; assay type: functional, cell-based
[6] = Inhibition of PrPSc formation in mouse SMB cells at 5 uM relative to control; assay type: functional
[7] = Toxicity against mouse SMB cells at 10 uM after 5 days by MTT assay; assay type: cell-based; settings: 120 h
[8] = Inhibition of PrPSc formation in mouse SMB cells at 0.05 uM relative to control; assay type: functional
[9] = Inhibition of PrPSc formation in mouse SMB cells at 1 uM relative to control; assay type: functional
[10] = Inhibition of PrPSc formation in mouse SMB cells at 7.5 uM relative to control; assay type: functional

Chain of Major prion protein (Mus musculus) (P04925 whole entry): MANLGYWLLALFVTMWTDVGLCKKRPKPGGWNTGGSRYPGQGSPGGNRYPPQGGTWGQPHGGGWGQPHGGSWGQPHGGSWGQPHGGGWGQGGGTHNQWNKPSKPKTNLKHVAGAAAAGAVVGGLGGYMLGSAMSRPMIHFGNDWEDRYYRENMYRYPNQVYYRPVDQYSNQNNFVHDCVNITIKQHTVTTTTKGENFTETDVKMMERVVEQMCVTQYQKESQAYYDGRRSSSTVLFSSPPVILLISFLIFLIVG

Row | SMILES | RUmax [1] | RUmax [2] | inhibition at 10 µM [3] | further results
1 | N#Cc1c(N)nc(Sc2cccc(Cl)c2)c(C#N)c1-c1ccc2c(c1)OCO2 | 78.6% | 10.5% | 96% | –
2 | N#Cc1c(N)nc(SCc2ccccc2)c(C#N)c1-c1cccc(O)c1 | 96.5% | 112% | 113% | –
3 | COC(=O)c1cccc(Sc2nc(N)c(C#N)c(-c3cccc(O)c3)c2C#N)c1 | – | – | 123% | –
4 | COC(=O)c1ccc(Sc2nc(N)c(C#N)c(-c3ccc(Cl)cc3)c2C#N)cc1 | – | – | – | Activity [4]: Toxic
5 | COC(=O)c1ccc(-c2c(C#N)c(N)nc(Sc3ccccc3O)c2C#N)cc1 | 5.7% | 0% | 72% | –
6 | N#Cc1c(N)nc(Sc2ccc(O)cc2)c(C#N)c1-c1cccs1 | – | – | 86% | –
7 | N#Cc1c(N)nc(Sc2ccc(Cl)cc2)c(C#N)c1-c1ccc2c(c1)OCCO2 | – | – | 68% | –
8 | COC(=O)c1ccc(Sc2nc(N)c(C#N)c(-c3cccs3)c2C#N)cc1 | – | – | 90% | –
9 | COC(=O)c1ccc(-c2c(C#N)c(N)nc(Sc3cccc(C(=O)OC)c3)c2C#N)cc1 | – | – | – | EC50 [5]: 8000 nM
10 | N#Cc1c(N)nc(Sc2cccc(O)c2)c(C#N)c1-c1cccs1 | – | – | 77% | –
11 | N#Cc1c(N)nc(SCc2ccccc2)c(C#N)c1-c1cccs1 | 55.5% | 52.6% | 81% | –
12 | N#Cc1c(N)nc(Sc2cccc(O)c2)c(C#N)c1-c1ccc2c(c1)OCO2 | 250% | 138% | 75% | –
13 | COC(=O)c1ccc(-c2c(C#N)c(N)nc(Sc3ccc(Cl)cc3)c2C#N)cc1 | 10.6% | 2.4% | 73% | –
14 | N#Cc1c(N)nc(Sc2cccc(Cl)c2)c(C#N)c1-c1cccs1 | 124% | 72.2% | 84% | –
15 | COC(=O)c1ccc(Sc2nc(N)c(C#N)c(-c3ccco3)c2C#N)cc1 | – | – | 69% | –
16 | N#Cc1c(N)nc(Sc2ccccc2O)c(C#N)c1-c1ccc(Cl)cc1 | 9.1% | 0% | 76% | –
17 | N#Cc1c(N)nc(Sc2cccc(O)c2)c(C#N)c1-c1cccc(O)c1 | – | – | – | inhibition at 5 µM [6]: 36%; Activity [7]: Toxic
18 | N#Cc1c(N)nc(Sc2ccc(O)cc2)c(C#N)c1-c1cccc(O)c1 | – | – | 85% | –
19 | N#Cc1c(N)nc(Sc2ccc(Cl)cc2)c(C#N)c1-c1cccs1 | 8.8% | 0% | – | EC50 [5]: 3000 nM
20 | N#Cc1c(N)nc(SCc2ccccc2)c(C#N)c1-c1ccco1 | – | – | 111% | –
21 | COC(=O)c1ccc(Sc2nc(N)c(C#N)c(-c3ccc4c(c3)OCCO4)c2C#N)cc1 | 6% | 0% | – | inhibition at 0.05 µM [8]: 23%
22 | N#Cc1c(N)nc(Sc2ccc(O)cc2)c(C#N)c1-c1ccc2c(c1)OCCO2 | – | – | – | Activity [4]: Toxic
23 | N#Cc1c(N)nc(Sc2ccc(O)cc2)c(C#N)c1-c1ccc2c(c1)OCO2 | – | – | 82% | –
24 | COC(=O)c1cccc(Sc2nc(N)c(C#N)c(-c3ccc4c(c3)OCCO4)c2C#N)c1 | – | – | – | inhibition at 0.05 µM [8]: 44%
25 | N#Cc1c(N)nc(Sc2ccc(Cl)cc2)c(C#N)c1-c1ccco1 | 37% | 44.8% | 73% | –
26 | N#Cc1c(N)nc(Sc2cccc(Cl)c2)c(C#N)c1-c1ccc(Cl)cc1 | – | – | 71% | –
27 | COC(=O)c1ccc(Sc2nc(N)c(C#N)c(-c3ccc(C(=O)OC)cc3)c2C#N)cc1 | – | – | – | EC50 [5]: 9000 nM

Row | SMILES | RUmax [1] | RUmax [2] | inhibition at 10 µM [3] | further results
28 | N#Cc1c(N)nc(Sc2ccc(O)cc2)c(C#N)c1-c1ccco1 | 21.9% | 19.6% | – | inhibition at 0.05 µM [8]: 24%
29 | N#Cc1c(N)nc(Sc2cccc(Cl)c2)c(C#N)c1-c1cccc(O)c1 | – | – | – | inhibition at 5 µM [6]: 36%; Activity [7]: Toxic
30 | N#Cc1c(N)nc(Sc2ccccc2O)c(C#N)c1-c1cccs1 | 16.9% | 6.1% | 65% | –
31 | COC(=O)c1cccc(Sc2nc(N)c(C#N)c(-c3ccco3)c2C#N)c1 | 26.9% | 2.2% | 69% | –
32 | N#Cc1c(N)nc(Sc2ccc(Cl)cc2)c(C#N)c1-c1ccc2c(c1)OCO2 | – | – | 67% | –
33 | COC(=O)c1cccc(Sc2nc(N)c(C#N)c(-c3ccc4c(c3)OCO4)c2C#N)c1 | 156% | 70.4% | 75% | –
34 | COC(=O)c1ccc(-c2c(C#N)c(N)nc(Sc3cccc(O)c3)c2C#N)cc1 | 8.4% | 0% | 77% | –
35 | N#Cc1c(N)nc(SCc2ccccc2)c(C#N)c1-c1ccc2c(c1)OCO2 | – | – | 79% | –
36 | N#Cc1c(N)nc(SCc2ccccc2)c(C#N)c1-c1ccc2c(c1)OCCO2 | – | – | 94% | –
37 | COC(=O)c1cccc(Sc2nc(N)c(C#N)c(-c3ccc(Cl)cc3)c2C#N)c1 | 6.2% | 0% | – | inhibition at 1 µM [9]: 63%
38 | N#Cc1c(N)nc(Sc2ccccc2)c(C#N)c1-c1ccc2c(c1)OCCO2 | 27.9% | 0% | 61% | –
39 | N#Cc1c(N)nc(Sc2cccc(Cl)c2)c(C#N)c1-c1ccc2c(c1)OCCO2 | 11.3% | 4.3% | – | EC50 [5]: 2500 nM
40 | N#Cc1c(N)nc(Sc2ccc(Cl)cc2)c(C#N)c1-c1cccc(O)c1 | 15.7% | 8.9% | – | EC50 [5]: 3000 nM
41 | N#Cc1c(N)nc(Sc2cccc(O)c2)c(C#N)c1-c1ccc2c(c1)OCCO2 | – | – | 86% | –
42 | COC(=O)c1ccc(-c2c(C#N)c(N)nc(SCc3ccccc3)c2C#N)cc1 | 9.3% | 0% | 107% | –
43 | COC(=O)c1ccc(Sc2nc(N)c(C#N)c(-c3cccc(O)c3)c2C#N)cc1 | – | – | 70% | –
44 | COC(=O)c1ccc(-c2c(C#N)c(N)nc(Sc3ccc(O)cc3)c2C#N)cc1 | – | – | – | inhibition at 7.5 µM [10]: 45%
45 | N#Cc1c(N)nc(Sc2cccc(Cl)c2)c(C#N)c1-c1ccco1 | – | – | 94% | –
46 | N#Cc1c(N)nc(Sc2ccccc2O)c(C#N)c1-c1ccc2c(c1)OCCO2 | 13.6% | 4.9% | 89% | –
47 | COC(=O)c1cccc(Sc2nc(N)c(C#N)c(-c3cccs3)c2C#N)c1 | – | – | 87% | –
48 | N#Cc1c(N)nc(Sc2cccc(O)c2)c(C#N)c1-c1ccc(Cl)cc1 | – | – | 73% | –
49 | N#Cc1c(N)nc(SCc2ccccc2)c(C#N)c1-c1ccc(Cl)cc1 | 8.6% | 0% | 92% | –
50 | N#Cc1c(N)nc(Sc2ccc(O)cc2)c(C#N)c1-c1ccc(Cl)cc1 | – | – | 90% | –
51 | COC(=O)c1ccc(-c2c(C#N)c(N)nc(Sc3cccc(Cl)c3)c2C#N)cc1 | – | – | – | inhibition at 5 µM [6]: 46%
52 | N#Cc1c(N)nc(Sc2ccc(Cl)cc2)c(C#N)c1-c1ccc(Cl)cc1 | 19.3% | 1.6% | 72% | –
53 | N#Cc1c(N)nc(Sc2ccccc2)c(C#N)c1-c1ccc2c(c1)OCO2 | – | – | 86% | –

From ChEMBL document CHEMBL1149754, “Synthesis and evaluation of a focused library of pyridine dicarbonitriles against prion disease” (Eur J Med Chem, 2008)
